Measured values published in patent publication US20150337276A1, “ENZYME HAVING A NMDA RECEPTOR ANTAGONIST ACTIVITY AND/OR AN ANTICHOLINERGIC ACTIVITY” (priority 2012, published 2015).

Columns and labels:
[1] = tested on: cortical neurons; test: Neurite network density (NF-H labeling) of cortical neurons under basal conditions, potential neurotoxic effect; conditions: enzymes 2.5 μM for 30 hours, glutamate 100 μM for 6 hours
[2] = tested on: glutamate intoxicated-cortical neurons; test: Neurite network density (NF-H labeling) of glutamate-intoxicated cortical neurons, neuroprotective effect; assay type: cell-based, rat; conditions: intoxicated conditions (glutamate 100 μM, 6 hours)
Procedure: Culture conditions: 37° C., 5% CO2
At DIV9, the reference MK-801 (10 μM) was pre-incubated for 30 minutes before glutamate intoxication. Cortical neurons were then incubated for 6 hours with 100 μM of glutamate in presence or not (intoxicated control) of test compounds, the solvent control or the reference. A control without glutamate (non-intoxicated control) was performed in parallel. All experimental conditions were performed in n=3.
All the images were taken under the same conditions.
Raw data were analyzed with Microsoft Excel® software.

[3] = tested on: NMDA receptor; test: NMDA current recording by patch clamp (whole cell, voltage clamp -30 mV) in dorsal root ganglia nociceptor neurons; assay type: cell-based, rat; conditions: for Percentage inhibition of NMDA current: NMDA 250 μM, holding potential -30 mV
Procedure: In one embodiment, the NMDA antagonist activity of the enzyme of the invention is measured by electrophysiology, as shown in Example 3. In one embodiment, said measurement is performed on dorsal root ganglion nociceptor neurons of rats.
The culture conditions of dorsal root ganglia neurons of rats were adapted from Hao and Delmas (J Neurosci. 2010, 6; 30(40)).
NMDA current recordings are performed in neurons of small and medium diameter (nociceptors). Neurons are identified visually and electrophysiologically by measuring their membrane capacitance. […] These neurons express the NMDA receptor in the dorsal root ganglia. Nociceptors are specifically identified by the presence of TTX-resistant Nav1.8 sodium current. Each neuron is tested for the presence upstream of Nav1.8.
NMDA currents are low amplitude currents. Thus, electrical leakage is carefully checked during recording. Infusion or injection of products was performed close to neurons to avoid changes in concentration (dilution effect). Media infusion was extemporaneously daily handled. Products OPN-001 were diluted from stock solutions and stored at 4° C. The data were collected using an Axopatch amplifier 200-B, the Clampex software (PClamp V10, Molecular Device) and stored and analyzed using Clampfit.

N[C@@H](CCC(=O)O)C(=O)O [Glutamate]
Mean NF-H-positive neurite surface ([1]; basal conditions (no glutamate), n=3): 21503 μm^2
Intoxication (%) ([1]; basal conditions, normalized to control): 34%

C[C@]12N[C@H](Cc3ccccc31)c1ccccc12 [MK801]
Mean NF-H-positive neurite surface ([2]; enzymes 2.5 μM pre-incubated 24 hours, MK801 10 μM pre-incubated 30 minutes, n=3): 32319 μm^2
Protection (%) ([2]; enzymes 2.5 μM, MK801 10 μM): ~96%

[Cl-].[Cl-].[Zn+2] [ZnCl2]
efficiency in inhibiting NMDA current, in words ([3]; 5 nM, alone): not efficient
time for the blocking effect on NMDA current to occur, in words ([3]; 50 nM and 500 nM): within seconds
inhibition of the NMDA current, trace (FIG. 1B), in words ([3]; 50 nM, 200 μl applied alone, NMDA 250 μM for 80 s): inhibits all of the NMDA current
Percentage inhibition of NMDA current ([3]; test substance 5 nM): 0%
Percentage inhibition of NMDA current ([3]; test substance 50 nM, mean of neurons): 100%
Percentage inhibition of NMDA current ([3]; test substance 500 nM, mean of neurons): 100%
